# According to US20070105908A1, “Thiazolimine compound and oxazolimine compound” (DAINIPPON SUMITOMO PHARMA CO., LTD., priority 2003, published 2007):
# Target: T1, chymase derived from human skin (Homo sapiens, UniProt P23946)
# T1 construct: chymase derived from human skin (Elastin Products Co.); purchased Elastin Products Co; host or cells: human skin (tissue-derived)
# T1 sequence (P23946 22-247): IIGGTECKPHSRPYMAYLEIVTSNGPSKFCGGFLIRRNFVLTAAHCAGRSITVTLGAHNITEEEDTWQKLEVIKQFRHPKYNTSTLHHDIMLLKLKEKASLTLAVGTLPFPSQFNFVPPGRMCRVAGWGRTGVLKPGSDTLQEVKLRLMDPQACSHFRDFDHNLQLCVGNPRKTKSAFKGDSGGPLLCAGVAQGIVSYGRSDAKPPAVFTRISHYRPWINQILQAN
# Assay: Inhibitory effect on chymase (in vitro test)
# Assay type: biochemical
# Conditions: 50 ng chymase, fluorescent synthetic substrate 0.1 mM, pH 8.0, 37° C. for 2 hours
# Description: Inhibitory Effect on Chymase (In Vitro Test)
# To 100 μl of a buffer solution A (50 mM Tris-hydrochloric acid (pH=8.0), 2M NaCl) were added 50 ng of chymase derived from human skin (Elastin Products Co.), a fluorescent synthetic substrate 0.1 mM succinyl-alanylprolyl-phenylalanine-methylcoumalylamide (Peptide Laboratories Co., Ltd.) and a test substance dissolved in dimethyl sulfoxide (DMSO), and the resulting mixture was incubated at 37° C. for 2 hours. Then, the intensity of fluorescence was measured at an excitation wavelength of 355 nm and a measuring wavelength of 460 nm by the use of a fluorescence plate reader (Fluoroscan (Dainippon Pharmaceutical Co., Ltd.)). A fluorescence intensity value obtained without adding the test substance was taken as 100% and a concentration at which a fluorescence intensity value calculated from a regression line became 50% was taken as IC50.
structure (smiles),measurement,value
"Cc1cn(Cc2cccc3ccccc23)/c(=N/S(=O)(=O)c2ccccc2C(=O)O)s1 [Example 1, 2-({[(2Z)-5-methyl-3-(1-naphthylmethyl)-1,3-thiazol-2(3H)-ylidene]amino}sulfonyl)benzoic acid]",IC50,2.1 nM
